The subject of data set [1] is luciferase mRNA (control luc+9). As to the kind of experiment: wheat germ lysate translation of control luciferase mRNA. Format: biochemical. The settings on record: control mRNA without TAR. An excerpt:
It is believed that stabilization of mRNA structures near the 5′-cap also could be effected by specific “small” molecules, and that such binding would reduce the translational efficiency of the mRNA. To test this hypothesis, a plasmid was constructed containing the luciferase message behind a 5′-UTR containing a 27-mer RNA construct of the HIV TAR stem-loop bulge whose structure had been determined by NMR.

Data set [2] has as its system TAR RNA interaction with tat peptide. As to the kind of experiment: disruption of TAR RNA interaction with tat peptide. Format: binding, HIV.
For data set [3], the target named is luciferase mRNA containing the TAR RNA structure in the 5′-UTR. The experiment in a line: wheat germ lysate translation of luciferase mRNA containing TAR RNA structure. Format: biochemical, HIV. The settings on record: luciferase mRNA with TAR RNA structure in the 5′-UTR, read-out: concentration reducing translation by 50%. An excerpt:
It is believed that stabilization of mRNA structures near the 5′-cap also could be effected by specific “small” molecules, and that such binding would reduce the translational efficiency of the mRNA. To test this hypothesis, a plasmid was constructed containing the luciferase message behind a 5′-UTR containing a 27-mer RNA construct of the HIV TAR stem-loop bulge whose structure had been determined by NMR. The resulting mRNA could be expressed and capped in a wheat germ lysate translation system supplemented with T7 polymerase following addition of m^7G to the lysate (see, FIG. 38A). Insertion of a 9-base leader before the TAR structure (HIVluc+9) enhanced the translational efficiency, presumably by allowing the pre-initiation complex to form. The helicase activity associated with the pre-initiation complex can transiently melt out the TAR RNA structure, and the message is translated (see, FIG. 38A).

The test system of the next data set is TAR. The settings on record: in words, FIG. 36.
The test system of another data set is E. coli. The experiment in a line: high throughput screening assay for antibacterial activity. The format is cell-based. As to conditions: Escherichia coli; crude compounds, against E. coli; read-out: minimum inhibitory concentrations (MIC's). An excerpt: This activity was verified by manual solution synthesis of analytically pure material as described in Example 6 above, which had identical activity.

Data set [4] has as its target 27-mer model RNA sequence of the 16S A-site. As to the kind of experiment: MASS assay (mass spectrometry binding affinity). The settings on record: 27-mer model RNA of the 16S A-site. An excerpt:
One mass spectrometric method which is particularly useful when combined with the techniques of the foregoing commonly owned inventions provides the determination of specificity and affinity of ligands to RNA targets. MASS (multi target affinity/specificity screening) techniques can provide high throughput screening methods to analyze the specificity and affinity of ligands to molecular interaction sites of nucleic acids, especially RNA. […]
Binding site information can be obtained by comparing the gas phase fragmentation patterns of the free and complexed target while relative binding constants are derived from the relative abundance of complexes using a complex with a known Kd as an internal standard. With knowledge of the specificity and affinity of ligands to the molecular interaction site of a target RNA, the desired lead or ultimate compound for modulation of the RNA can be determined.
The compounds are screened for binding affinity using MASS or conventional high-throughput functional screens. […] The MASS assay was performed with the 27-mer model RNA sequence of the 16S A-site whose NMR structure has been determined. […]

In a further data set the test system is luciferase reporter. The experiment in a line: transcription/translation assay based on expression of a luciferase plasmid. Format: biochemical. How it is done: The compounds are screened for binding affinity using MASS or conventional high-throughput functional screens. The best scoring compounds from docking a 256-member library against the 16S A-site ribosomal RNA structure are shown in the table below. The MASS assay was performed with the 27-mer model RNA sequence of the 16S A-site whose NMR structure has been determined. The transcription/translation assay was based on expression of a luciferase plasmid.

In data set [5] the target is 27-mer RNA containing the A-site of the 16S rRNA. As to conditions: cited from earlier work.
The conditions of data set [6]: cited from earlier work.
In data set [7] the test system is 23S rRNA fragment / L11 protein fragment. The experiment in a line: L11/thiostrepton SPA assay. Format: binding. As to conditions: positive control, RNA under destabilizing conditions. An excerpt: The mode of action of thiostrepton appears to be to stabilize a region of the 23S rRNA and by doing so prevent a structural transition in the L11 protein. Among the many assays that look at RNA/protein interactions, an SPA assay has been designed to look for small molecules that could be effective as thiostrepton ‘like’ agents. This assay uses a radiolabeled small fragment of the 23S rRNA, a biotinylated 75 amino acid fragment of the L11 protein that contains the 23S rRNA binding domain and thiostrepton. The folding conditions of the secondary and tertiary structures of the 23S rRNA fragment have been examined as have the binding conditions of the L11 fragment to the 23S rRNA. The L11-thiostrepton assay has been optimized so that the 23S rRNA fragment is in an unfolded state prior to the addition of compounds. Addition of the L11 fragment to this unfolded RNA results in no detectable binding interaction. The high throughput assay is run by mixing the 23S rRNA fragment, under destabilizing conditions, with compounds of interest, incubating this mixture, and then adding the L11 fragment. Streptavidin-coated SPA beads are added for binding detection. Thiostrepton is used as a positive control.

Converted amounts (≈) assume the structure as drawn. Like-named read-outs stand apart in the source and are kept apart here.

Consider five molecules from patent publication US20030017483A1, “Modulation of molecular interaction sites on RNA and other biomolecules” (priority 1998, published 2003).

On to `CNc1ccc(NCCO)c2c1C(=O)c1ccccc1C2=O` [ACD 00001199], for which the “inhibition of translation of the luciferase mRNA” value in data set [1] is “some inhibition of translation at very high concentrations”. For the same molecule, the “concentration at which the interaction of TAR RNA with tat peptide is disrupted” value in data set [2] worked out at 1 µM. In addition, the IC50 in data set [3] worked out at 50 µM. The IC50 values entry in the data set with TAR is “low”.
`O=C(NO)[C@@H](Cc1ccc2ccccc2c1)NS(=O)(=O)c1ccc2ccccc2c1` [Compound 5-n-ii, (2R)-3-(2-naphthyl)-2-((2-naphthylsulfonyl)amino)propanehydroxamic Acid]: in the data set with E. coli, the MIC lay within 0.7 to 1.5 µM (≈ 0.294 to 0.631 µg/mL).
Same read-out and setting: for `O=C(NO)[C@@H](Cc1ccc2ccccc2c1)NS(=O)(=O)c1ccc(Br)cc1` [Compound 5-n-vi, (2R)-2-(((4-bromophenyl)sulfonyl)amino)-3-(2-naphthyl)propanehydroxamic Acid] the value was 3 to 6 µM (≈ 1.35 to 2.7 µg/mL).
Turning to `NC[C@@H]1O[C@H](O[C@H]2[C@@H](O)[C@H](O[C@@H]3[C@@H](O)[C@H](N)C[C@H](N)[C@H]3O[C@H]3O[C@H](CO)[C@@H](O)[C@H](O)[C@H]3N)O[C@@H]2CO)[C@H](N)[C@@H](O)[C@@H]1O` [Paromomycin], the Kd in data set [4] was 500 nM; in [5] (27-mer RNA containing the A-site of the 16S rRNA, known value, read-out: Kd, binding to the unpaired adenosine residues), 200 nM; in [5] (standard, known from other experiments or literature, read-out: binding affinity for a test 27-mer RNA), ~1000 nM. In the data set on luciferase reporter, the “Activity: Inhibition of protein synthesis in transcription/translation assay for luciferase reporter” value came out at 0.3 µM.
In the case of `C=C(NC(=O)C(=C)NC(=O)c1csc(C2=N[C@@H]3c4csc(n4)[C@H]4NC(=O)c5csc(n5)[C@H]([C@](C)(O)[C@@H](C)O)NC(=O)[C@H]5CSC(=N5)/C(=C/C)NC(=O)[C@H]([C@@H](C)O)NC(=O)c5csc(n5)[C@]3(CC2)NC(=O)[C@H](C)NC(=O)C(=C)NC(=O)[C@H](C)NC(=O)[C@H]([C@@H](C)CC)N[C@@H]2C=Cc3c([C@H](C)O)cc(nc3[C@H]2O)C(=O)O[C@@H]4C)n1)C(N)=O` [thiostrepton], the solubility entry in data set [6] was “very poor solubility”. In data set [7], the “L11 fragment binding to 23S rRNA fragment (SPA signal)” value is reported as “allows the L11 fragment to bind leading to the generation of a signal”.
